Source: US9198894B2, “Uses of 15-benzylidene-14-deoxy-11,12-didehydroandrographolide derivatives in the preparation of antineoplastic drugs” (Zhengzhou University, priority 2010, dated 2015)
Marks after values point to notes of the source that are not given here.

Legend:
mice = assay: Acute oral toxicity test, maximum limit method; assay type: in vivo; conditions: single dose 5.00 g/kg intragastric, 14 d observation; for Deaths: 10 animals
Experimental: (§1) 1) Animals: Be the same with that of EXAMPLE 4.
3) Method: 20 mice weighing 20±2 g, half male and half female, were divided into 2 groups (n=10) randomly. Animals were administrated with compound 2 or compound 3 at a dose of 5.00 g/kg by intragastric administration after 12 h of fasting (drinking freely). Weigh the mice, observe and record the performance of animals once a day continuously for 14 d.

Murine hepatoma H22 = assay: Anti-tumor and anti-angiogenesis effects on H22 tumor-bearing mice; assay type: in vivo, mouse; conditions: for IR (%) of tumor growth / Carmine contents / VI (vascular index, mg carmine red per g tumor tissue): H22 mice; for Carmine contents / VI (vascular index, mg carmine red per g tumor tissue): mean ± s; for Inhibition against angiogenesis in H22 tumor (in words) / Inhibition against the growth of mouse hepatoma H22 (in words): ig, tested doses 0.65-1.35 mmol/kg
Text: 1) Animals: Kunming mice of clean grade, half male and half female, body weight 20±2 g, were purchased from the experimental animal center of Henan Province, China. Qualified Certificate number: SCXK (Yu) 2005-0001.
2) Cells: Murine hepatoma H22 cells were presently obtained from Henan Academy of Medical and Pharmaceutical Sciences (Zhengzhou, China).
Cyclophosphamide (Cyc) was produced by Tianjin Jingshi Pharmaceutical Co., Ltd., China (approval number of medicine: H12021006). Gelatin and carmine red were supplied by Sigma Chemical (St. Louis, Mo., U.S.A). All other chemicals and reagents were of the highest commercial grade available. All drugs were prepared with normal saline emulsified with Tween-80 (0.1% v/v) and dispersed in carboxymethylcellulose (0.5% v/v). 10% (W/V) carmine solution was prepared with salt solution containing 5% (W/V) gelatin which should be used immediately after preparation. The rest of medicines and reagents and the methods for preparation were the same with that of EXAMPLE 1.
4) Method: The H22 cells after in vivo passage for 7 d were diluted with physiological saline to adjust to a concentration of 1×10^7/mL, injected to the armpit of right forelimb of mice subcutaneously (0.2 ml/mouse), then mice were divided into 10 groups (n=12; 6 male and 6 female per group) randomly. 24 h later each group of mice was administrated intragastrically (ig; 0.2 ml/10 g) once a day continuously for 7 d with vehicle (tumor control group and control group), Cyc (standard control), or compounds at the tested doses. After the last drug administration and a following fasting of 8 h, each mouse was anesthetized with 1% pentobarbital in normal saline solution (80 mg/kg; ip). Mice of control group were injected with 5% gelatin in normal saline solution (40) via the tail vein (1 ml/mouse); whereas mice of other groups were injected replaced by 10% carmine red and 5% gelatin in normal saline solution (40). Mice were killed, then freezed in a refrigerator at −20 for 2 h to solidify. Tumors were segregated, weighed and homogenized with 3 M NaOH solution (10 ml/g tumor). The homogenate supernatant was prepared by being centrifuged for 20 min at 14000 rpm, and the absorbance at 490 nm was assayed using a PowerWaveX Microplate Scanning Spectrophotometer (Bio-tek Instruments, Inc). The carmine red content was calculated based on the standard curve. The vascular index (VI) expressed as milligram of carmine red per gram of tumor tissue. The inhibition ratio (IR) of tumor growth was calculated using the formula: IR (%)=[(Wc−Wt)/Wc]×100%, where Wc is the average tumor weight of the control group, and Wt is that of the drug treatment group. Data were expressed as mean±SD and statistical analysis was performed by SPSS Statistics 17.0 using a one-way analysis of variance (ANOVA) followed by unpaired t-test. A value of P<0.05 was considered statistically significant.

S180 murine sarcoma = assay: Growth, invasion and metastasis of S180 sarcoma in tumor-bearing mice; assay type: in vivo, mouse; conditions: for Average invasion and metastasis grade: S180, grades 0-4; for Mouse Number Grade 0 / Mouse Number Grade 1 / Mouse Number Grade 2 / Mouse Number Grade 3 / Mouse Number Grade 4: S180 invasion; for Mouse Number Grade 0: Grade 0: no invasion; for Mouse Number Grade 1: Grade 1: invasion to right forelimb; for Mouse Number Grade 2: Grade 2: right forelimb and the left side of body; for Mouse Number Grade 3: Grade 3: also the ribs and muscles in chest; for Mouse Number Grade 4: Grade 4: invasion into chest or abdominal cavity; for In vivo antitumor effect on S180 compared with parent compound (in words) / Inhibitory effect on invasion and metastasis of S180 tumor tissues (in words): ig, tested doses
Experimental: as §1
2) Cells: The S180 murine sarcoma cells were obtained from Henan Academy of Medical and Pharmaceutical Sciences (Zhengzhou, China).
4) Method: Mice were randomly divided into 10 groups (n=12). The S180 cells after in vivo passage for 7 d were diluted with physiological saline to adjust to a concentration of 1×10^7/mL. The inoculation of tumor cells was conducted in two batches, those of tumor control group I and groups treated with compounds 1 or 3 were in batch 1, those of tumor control group II, Cyc group and the compound 2 groups were in batch 2. The mice were injected with S180 cells (0.2 ml/mouse) into the armpit of right forelimb subcutaneously, and 24 h later each group of mice was administrated intragastrically (ig; 0.2 ml/10 g) once a day continuously for 9 d with vehicle (tumor control group), Cyc (standard control), or compounds at the tested doses. On day 10, kill the mice, observe and record the degree of invasion and metastasis of tumor tissues, then the tumor tissues were segregated and weighed. The inhibition ratio (IR) of tumor growth was calculated by the following formula: IR (%)=[(Wc−Wt)/Wc]×100%, where Wc is the average tumor weight of the control group, and Wt is that of the treatment group. Data were expressed as mean±SD and statistical analysis was performed by SPSS Statistics 17.0 using a one-way analysis of variance (ANOVA) followed by unpaired t-test. A value of P<0.05 was considered statistically significant.

[1] = 1.10 mmol/kg (1.10 mmol/g [sic])

Row | Structure (SMILES) | Mortality(%) (mice) | Deaths (mice) | IR (%) of tumor growth (Murine hepatoma H22; 0.65 mmol/kg ig once a day 7 d) | Carmine contents (Murine hepatoma H22; 0.65 mmol/kg ig once a day 7 d) | VI (vascular index, mg carmine red per g tumor tissue) (Murine hepatoma H22; 0.65 mmol/kg ig once a day 7 d) | IR (%) of tumor growth (Murine hepatoma H22; 1.00 mmol/kg ig once a day 7 d) | Carmine contents (Murine hepatoma H22; 1.00 mmol/kg ig once a day 7 d) | VI (vascular index, mg carmine red per g tumor tissue) (Murine hepatoma H22; 1.00 mmol/kg ig once a day 7 d) | IR (%) of tumor growth (Murine hepatoma H22; 1.35 mmol/kg ig once a day 7 d) | Carmine contents (Murine hepatoma H22; 1.35 mmol/kg ig once a day 7 d) | VI (vascular index, mg carmine red per g tumor tissue) (Murine hepatoma H22; 1.35 mmol/kg ig once a day 7 d) | Inhibition against angiogenesis in H22 tumor (in words) (Murine hepatoma H22) | Inhibition against the growth of mouse hepatoma H22 (in words) (Murine hepatoma H22) | IR (%) of S180 sarcoma growth (S180 murine sarcoma; 0.60 mmol/kg ig once a day 9 d) [%] | IR (%) of S180 sarcoma growth (S180 murine sarcoma; 0.85 mmol/kg ig once a day 9 d) | IR (%) of S180 sarcoma growth (S180 murine sarcoma; 1.10 mmol/kg ig once a day 9 d) | Average invasion and metastasis grade (S180 murine sarcoma; 0.60 mmol/kg) | Average invasion and metastasis grade (S180 murine sarcoma; 0.85 mmol/kg) | Average invasion and metastasis grade (S180 murine sarcoma; [1]) | Mouse Number Grade 0 (S180 murine sarcoma; 0.60 mmol/kg) | further results
1 | C=C1CCC2C(C)(CO)C(O)CCC2(C)C1C=CC1=CC(=Cc2ccc(Cl)cc2)OC1=O (centres unmarked) [Compound 2, 15-p-chlorobenzylidene-14-deoxy-11,12-didehydro-andrographolide] | 0 | 0 | 15.69% | 4.63 ± 2.93 | 4.42 ± 1.58 mg/g | 49.63**^ΔΔ % | 2.59 ± 1.68*^Δ | 3.89 ± 0.89 mg/g | 50.37**^ΔΔ % | 1.90 ± 1.39**^ΔΔ | 3.14 ± 1.69*^Δ mg/g | significant inhibition | significant inhibition | 30.12 ± 8.00 | 53.38 ± 6.83**^ΔΔ % | 45.16 ± 5.58**^ΔΔ % | 2.00 | 0.00 | 0.00 | 0 | Mouse Number Grade 0 (S180 murine sarcoma; 0.85 mmol/kg): 12; Mouse Number Grade 0 (S180 murine sarcoma; [1]): 12; Mouse Number Grade 1 (S180 murine sarcoma; 0.60 mmol/kg): 0; Mouse Number Grade 1 (S180 murine sarcoma; 0.85 mmol/kg): 0; Mouse Number Grade 1 (S180 murine sarcoma; [1]): 0; Mouse Number Grade 2 (S180 murine sarcoma; 0.60 mmol/kg): 12; Mouse Number Grade 2 (S180 murine sarcoma; 0.85 mmol/kg): 0; Mouse Number Grade 2 (S180 murine sarcoma; [1]): 0; Mouse Number Grade 3 (S180 murine sarcoma; 0.60 mmol/kg): 0; Mouse Number Grade 3 (S180 murine sarcoma; 0.85 mmol/kg): 0; Mouse Number Grade 3 (S180 murine sarcoma; [1]): 0; Mouse Number Grade 4 (S180 murine sarcoma; 0.60 mmol/kg): 0; Mouse Number Grade 4 (S180 murine sarcoma; 0.85 mmol/kg): 0; Mouse Number Grade 4 (S180 murine sarcoma; [1]): 0; In vivo antitumor effect on S180 compared with parent compound (in words) (S180 murine sarcoma): significantly stronger than that of the parent compound; Inhibitory effect on invasion and metastasis of S180 tumor tissues (in words) (S180 murine sarcoma): strong inhibitory effect
2 | C=C1CCC2C(C)(COC(=O)c3cccnc3)C(OC(=O)c3cccnc3)CCC2(C)C1C=CC1=CC(=Cc2ccc(Cl)cc2)OC1=O (centres unmarked) [Compound 3, 15-p-chlorobenzylidene-14-deoxy-11,12-didehydro-3,19-dinicotinate andrographolide] | 0 | 0 | 37.89* % | 2.26 ± 1.97*^Δ | 3.60 ± 1.86*^Δ mg/g | 41.26*^ΔΔ % | 1.88 ± 1.26**^ΔΔ | 3.30 ± 1.43*^Δ mg/g | 49.27**^ΔΔ % | 2.14 ± 1.42*^Δ | 3.88 ± 1.40 mg/g | significant inhibition | significant inhibition | 18.89 ± 3.68 | 20.21 ± 4.37 % | 24.44 ± 6.30 % | 1.08 | 1.25 | 0.42 | 4 | Toxic symptoms observed (mice): No apparent toxic symptoms; IR (%) of S180 sarcoma growth (S180 murine sarcoma; 1.35 mmol/kg ig once a day 9 d): 31.21 ± 5.96**^Δ %; Mouse Number Grade 0 (S180 murine sarcoma; 0.85 mmol/kg): 5; Mouse Number Grade 0 (S180 murine sarcoma; [1]): 8; Mouse Number Grade 1 (S180 murine sarcoma; 0.60 mmol/kg): 5; Mouse Number Grade 1 (S180 murine sarcoma; 0.85 mmol/kg): 2; Mouse Number Grade 1 (S180 murine sarcoma; [1]): 3; Mouse Number Grade 2 (S180 murine sarcoma; 0.60 mmol/kg): 1; Mouse Number Grade 2 (S180 murine sarcoma; 0.85 mmol/kg): 2; Mouse Number Grade 2 (S180 murine sarcoma; [1]): 1; Mouse Number Grade 3 (S180 murine sarcoma; 0.60 mmol/kg): 2; Mouse Number Grade 3 (S180 murine sarcoma; 0.85 mmol/kg): 3; Mouse Number Grade 3 (S180 murine sarcoma; [1]): 0; Mouse Number Grade 4 (S180 murine sarcoma; 0.60 mmol/kg): 0; Mouse Number Grade 4 (S180 murine sarcoma; 0.85 mmol/kg): 0; Mouse Number Grade 4 (S180 murine sarcoma; [1]): 0; In vivo antitumor effect on S180 compared with parent compound (in words) (S180 murine sarcoma): significantly stronger than that of the parent compound; Inhibitory effect on invasion and metastasis of S180 tumor tissues (in words) (S180 murine sarcoma): strong inhibitory effect
